Measured values from ChEMBL document CHEMBL1201862, “PubChem BioAssay data set” (2004).
Activity calls are given as the source filed them.

Tests used:
[1] = target: Lysosomal acid glucosylceramidase (Homo sapiens, UniProt P04062); assay: Dose response cell-based high throughput screening assay to identify enhancers of beta-glucosidase activity. [Related pubchem assays: 784 ]; type: functional
[2] = target: NS3 (Hepatitis C virus, UniProt A3EZJ3); assay: PubChem AID 2173; parameters: species or system Hepacivirus hominis
Sequence of NS3 (A3EZJ3 whole entry): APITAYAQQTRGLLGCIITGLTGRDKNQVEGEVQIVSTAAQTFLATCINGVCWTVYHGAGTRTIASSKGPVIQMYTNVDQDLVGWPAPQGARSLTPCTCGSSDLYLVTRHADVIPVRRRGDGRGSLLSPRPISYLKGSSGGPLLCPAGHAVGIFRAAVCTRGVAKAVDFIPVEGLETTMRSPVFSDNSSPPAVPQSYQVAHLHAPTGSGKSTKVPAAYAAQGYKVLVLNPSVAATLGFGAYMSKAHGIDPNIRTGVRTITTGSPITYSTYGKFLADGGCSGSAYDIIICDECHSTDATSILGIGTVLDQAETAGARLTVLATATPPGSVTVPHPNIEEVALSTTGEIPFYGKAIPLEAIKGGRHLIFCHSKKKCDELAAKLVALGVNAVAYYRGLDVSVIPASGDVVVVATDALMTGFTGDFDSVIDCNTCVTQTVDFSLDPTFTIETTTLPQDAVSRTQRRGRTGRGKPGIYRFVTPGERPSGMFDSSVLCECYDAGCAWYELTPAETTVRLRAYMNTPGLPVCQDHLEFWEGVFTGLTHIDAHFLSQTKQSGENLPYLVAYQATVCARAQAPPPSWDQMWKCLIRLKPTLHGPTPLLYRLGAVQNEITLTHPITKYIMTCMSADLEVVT

[3] = target: T1, Cytochrome P450 1A2 (Homo sapiens, UniProt P05177);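 further: PubChem cytochrome P450 panel assay, CYP1A2 panel member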
T1 sequence (P05177 whole entry): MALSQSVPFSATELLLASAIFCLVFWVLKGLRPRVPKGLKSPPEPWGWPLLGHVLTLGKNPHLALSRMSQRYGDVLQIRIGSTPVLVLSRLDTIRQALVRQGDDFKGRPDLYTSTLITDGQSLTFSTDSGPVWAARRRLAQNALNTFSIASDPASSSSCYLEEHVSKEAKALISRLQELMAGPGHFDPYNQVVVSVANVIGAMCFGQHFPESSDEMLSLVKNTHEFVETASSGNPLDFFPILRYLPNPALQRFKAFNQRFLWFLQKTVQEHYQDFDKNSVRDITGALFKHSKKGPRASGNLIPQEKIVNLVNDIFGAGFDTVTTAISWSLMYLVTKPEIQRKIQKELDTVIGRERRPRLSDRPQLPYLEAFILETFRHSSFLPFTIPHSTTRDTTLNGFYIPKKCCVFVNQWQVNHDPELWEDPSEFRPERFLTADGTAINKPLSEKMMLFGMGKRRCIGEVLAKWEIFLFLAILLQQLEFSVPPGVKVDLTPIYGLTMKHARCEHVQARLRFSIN

[4] = target: Cytochrome P450 3A4 (Homo sapiens, UniProt P08684);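 further: CYP3A4 tested as one member of a cytochrome P450 panel screen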
Sequence of Cytochrome P450 3A4 (P08684 whole entry): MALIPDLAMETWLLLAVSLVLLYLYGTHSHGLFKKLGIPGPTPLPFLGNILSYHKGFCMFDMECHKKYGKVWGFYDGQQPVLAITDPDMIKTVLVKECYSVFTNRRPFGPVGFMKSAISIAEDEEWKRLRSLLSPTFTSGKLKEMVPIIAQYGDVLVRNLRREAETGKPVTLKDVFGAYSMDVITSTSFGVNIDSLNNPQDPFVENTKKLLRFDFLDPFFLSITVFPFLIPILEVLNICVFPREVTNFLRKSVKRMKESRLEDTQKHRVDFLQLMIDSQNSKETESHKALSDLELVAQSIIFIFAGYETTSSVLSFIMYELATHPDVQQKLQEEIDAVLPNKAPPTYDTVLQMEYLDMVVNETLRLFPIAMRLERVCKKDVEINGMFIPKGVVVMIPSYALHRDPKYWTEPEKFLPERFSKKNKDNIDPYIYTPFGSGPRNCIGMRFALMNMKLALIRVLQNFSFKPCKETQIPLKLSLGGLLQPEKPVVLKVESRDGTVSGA

[5] = target: T2, Neuropeptides B/W receptor type 1 (Homo sapiens, UniProt P48145); assay: Fluorescence-based dose response cell-based high throughput screening assay to identify antagonists of the G-protein coupled receptor 7 (GPR7). [Related pubchem assays: 1952 (Screening assay (GPR7 antagonists).), 1880 (Summary AID.)]; type: functional
T2 sequence (P48145 whole entry): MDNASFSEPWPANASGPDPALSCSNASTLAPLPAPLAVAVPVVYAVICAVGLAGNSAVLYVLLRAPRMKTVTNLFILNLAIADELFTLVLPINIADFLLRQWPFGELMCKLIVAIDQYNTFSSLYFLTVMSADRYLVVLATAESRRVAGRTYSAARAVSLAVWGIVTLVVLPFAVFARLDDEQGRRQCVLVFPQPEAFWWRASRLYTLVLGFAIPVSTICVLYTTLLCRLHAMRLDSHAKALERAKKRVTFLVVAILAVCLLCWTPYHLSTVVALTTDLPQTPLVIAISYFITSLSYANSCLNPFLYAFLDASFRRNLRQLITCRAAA

[6] = target: Melanin-concentrating hormone receptor 1 (Homo sapiens, UniProt Q99705); assay: Fluorescence-based counterscreen for antagonists of the G-protein coupled receptor 7 (GPR7): cell-based high throughput dose response assay to identify antagonists of the melanin-concentrating hormone receptor 1 (MCHR1).; type: functional
Sequence of Melanin-concentrating hormone receptor 1 (Q99705 whole entry): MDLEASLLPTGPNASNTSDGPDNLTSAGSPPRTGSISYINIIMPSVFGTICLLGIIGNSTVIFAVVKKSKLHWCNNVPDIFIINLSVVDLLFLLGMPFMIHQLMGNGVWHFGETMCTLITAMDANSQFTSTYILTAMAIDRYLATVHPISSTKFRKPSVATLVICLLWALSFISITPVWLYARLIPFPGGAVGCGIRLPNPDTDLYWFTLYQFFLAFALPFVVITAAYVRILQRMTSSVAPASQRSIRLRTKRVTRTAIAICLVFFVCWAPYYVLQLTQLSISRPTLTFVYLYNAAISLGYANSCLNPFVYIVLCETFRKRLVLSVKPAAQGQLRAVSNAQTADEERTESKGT

[7] = target: Cytochrome P450 2D6 (Homo sapiens, UniProt P10635); assay: qHTS Assay for Inhibitors and Substrates of Cytochrome P450 2D6. [Related pubchem assays: 410 ]; type: ADME; details: read-out: Potency
Sequence of Cytochrome P450 2D6 (P10635 whole entry): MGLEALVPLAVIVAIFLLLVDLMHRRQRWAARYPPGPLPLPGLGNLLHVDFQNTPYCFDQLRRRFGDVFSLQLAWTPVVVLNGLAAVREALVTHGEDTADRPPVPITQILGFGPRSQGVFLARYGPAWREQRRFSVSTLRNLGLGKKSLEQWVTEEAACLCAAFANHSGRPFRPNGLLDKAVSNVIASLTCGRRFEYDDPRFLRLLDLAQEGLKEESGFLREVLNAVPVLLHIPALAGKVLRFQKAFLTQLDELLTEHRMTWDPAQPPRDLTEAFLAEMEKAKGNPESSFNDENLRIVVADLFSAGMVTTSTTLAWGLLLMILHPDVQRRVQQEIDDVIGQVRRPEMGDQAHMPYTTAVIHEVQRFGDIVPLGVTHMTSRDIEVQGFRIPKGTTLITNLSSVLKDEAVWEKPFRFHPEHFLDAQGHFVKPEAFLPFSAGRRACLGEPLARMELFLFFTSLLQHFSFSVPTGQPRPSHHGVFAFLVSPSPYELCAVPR

[8] = target: Serine/threonine-protein phosphatase PP1-alpha catalytic subunit (Homo sapiens, UniProt P62136); assay: PP1 phosphatase inhibitors, dose response, biochemical, fluorescence (AID 2403);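 further: phosphatase turnover of OMFP into fluorescent 3-O-methylfluorescein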
Sequence of Serine/threonine-protein phosphatase PP1-alpha catalytic subunit (P62136 whole entry): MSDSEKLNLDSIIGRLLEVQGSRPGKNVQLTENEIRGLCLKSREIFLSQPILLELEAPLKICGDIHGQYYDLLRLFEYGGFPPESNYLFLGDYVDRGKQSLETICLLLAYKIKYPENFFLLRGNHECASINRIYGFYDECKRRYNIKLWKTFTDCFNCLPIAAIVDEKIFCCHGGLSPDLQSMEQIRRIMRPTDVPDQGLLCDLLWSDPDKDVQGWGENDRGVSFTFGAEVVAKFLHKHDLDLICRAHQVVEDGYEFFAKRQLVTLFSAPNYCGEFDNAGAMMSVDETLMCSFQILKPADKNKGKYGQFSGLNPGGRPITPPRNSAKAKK

[9] = target: Serine/threonine-protein phosphatase (Homo sapiens, UniProt Q9BPW0); assay: Counterscreen for inhibitors of PP1: fluorescence-based biochemical high throughput dose response assay to identify inhibitors of Protein Phosphatase 5 (PP5). [Related pubchem assays: 2034 (Summary (PP5 inhibitors)), 1987 (PP5 inhibitors in singlate), 2235 (PP1 inhibitors in singlate)]
Sequence of Serine/threonine-protein phosphatase (Q9BPW0 whole entry): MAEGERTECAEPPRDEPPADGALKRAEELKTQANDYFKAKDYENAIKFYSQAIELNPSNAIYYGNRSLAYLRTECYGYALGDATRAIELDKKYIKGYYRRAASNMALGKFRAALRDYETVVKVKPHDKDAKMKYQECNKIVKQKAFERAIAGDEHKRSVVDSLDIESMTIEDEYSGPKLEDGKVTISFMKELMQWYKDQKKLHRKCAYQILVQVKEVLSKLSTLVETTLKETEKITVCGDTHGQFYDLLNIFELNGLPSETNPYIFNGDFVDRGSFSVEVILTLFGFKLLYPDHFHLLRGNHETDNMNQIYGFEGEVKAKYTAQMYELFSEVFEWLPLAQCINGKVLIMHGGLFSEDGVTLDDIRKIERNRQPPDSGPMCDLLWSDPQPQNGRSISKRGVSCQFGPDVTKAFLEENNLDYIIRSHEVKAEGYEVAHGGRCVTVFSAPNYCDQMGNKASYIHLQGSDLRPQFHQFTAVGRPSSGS

[10] = test system: HEK293; assay: Fluorescence-based counterscreen for potentiators or agonists of NPY-Y2: cell-based high-throughput dose response assay to identify inhibitors of cyclic nucleotide gated ion channel (CNGC) activity. In this assay, the parental HEK293 cell line transfected with a cyclic-nucleotide gated ion channel (CNGC)-based cAMP sensor is used to measure inhibition of isoproterenol-induced CNGC activity by test compound.; type: functional; details: Homo sapiens;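 further: stimulus is 1 µM isoproterenol at EC100 plus PDE inhibitor Ro 20-1724 at 25 µM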
[11] = target: T3, Neuropeptide Y receptor type 2 (Homo sapiens, UniProt P49146); assay: Fluorescence-based cell-based high-throughput dose response assay for agonists of NPY-Y2. [Related pubchem assays: 1703 (Screening assay (CNGC inhibitors).), 1359 (Screening assay (NPY-Y2 potentiators or agonists).), 1304 (Screening assay (NPY-Y1 potentiators or agonists).), 1710 (Screening assay (NPY-Y2 agonists).), 1791 (Summary AID.)]; type: functional
T3 sequence (P49146 whole entry): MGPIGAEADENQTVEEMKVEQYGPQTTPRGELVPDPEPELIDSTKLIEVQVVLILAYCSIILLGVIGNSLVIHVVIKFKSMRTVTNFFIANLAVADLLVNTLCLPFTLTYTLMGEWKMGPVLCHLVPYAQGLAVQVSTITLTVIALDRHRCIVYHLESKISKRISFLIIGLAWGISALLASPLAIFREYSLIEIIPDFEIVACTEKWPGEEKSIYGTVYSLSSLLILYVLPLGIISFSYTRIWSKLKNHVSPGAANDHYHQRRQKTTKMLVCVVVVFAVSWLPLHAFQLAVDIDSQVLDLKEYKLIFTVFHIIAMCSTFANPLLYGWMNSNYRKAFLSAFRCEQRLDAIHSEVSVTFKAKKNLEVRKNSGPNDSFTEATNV

[12] = target: T4, Neuropeptide Y receptor type 1 (Homo sapiens, UniProt P25929); assay: Fluorescence-based counterscreen for agonists of NPY-Y2: cell-based high-throughput dose response assay for agonists of NPY-Y1.; type: functional
T4 sequence (P25929 whole entry): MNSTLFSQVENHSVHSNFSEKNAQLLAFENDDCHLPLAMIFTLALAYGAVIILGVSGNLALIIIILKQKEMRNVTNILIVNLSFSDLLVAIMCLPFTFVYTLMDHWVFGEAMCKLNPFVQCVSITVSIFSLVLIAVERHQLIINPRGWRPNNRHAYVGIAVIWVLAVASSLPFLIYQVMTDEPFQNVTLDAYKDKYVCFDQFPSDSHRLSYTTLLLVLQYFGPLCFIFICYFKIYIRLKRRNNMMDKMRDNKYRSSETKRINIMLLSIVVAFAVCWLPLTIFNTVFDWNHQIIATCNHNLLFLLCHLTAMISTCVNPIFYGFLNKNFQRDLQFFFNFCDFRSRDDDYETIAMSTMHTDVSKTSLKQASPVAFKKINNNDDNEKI

[13] = target: T5, Leucine aminopeptidase (Plasmodium falciparum 3D7, UniProt Q8IL11); assay: P. falciparum M17LAP inhibitors, primary screen, biochemical, fluorogenic H-Leu-NHMec substrate, 1536-well (AID 1619); type: functional
T5 sequence (Q8IL11 whole entry): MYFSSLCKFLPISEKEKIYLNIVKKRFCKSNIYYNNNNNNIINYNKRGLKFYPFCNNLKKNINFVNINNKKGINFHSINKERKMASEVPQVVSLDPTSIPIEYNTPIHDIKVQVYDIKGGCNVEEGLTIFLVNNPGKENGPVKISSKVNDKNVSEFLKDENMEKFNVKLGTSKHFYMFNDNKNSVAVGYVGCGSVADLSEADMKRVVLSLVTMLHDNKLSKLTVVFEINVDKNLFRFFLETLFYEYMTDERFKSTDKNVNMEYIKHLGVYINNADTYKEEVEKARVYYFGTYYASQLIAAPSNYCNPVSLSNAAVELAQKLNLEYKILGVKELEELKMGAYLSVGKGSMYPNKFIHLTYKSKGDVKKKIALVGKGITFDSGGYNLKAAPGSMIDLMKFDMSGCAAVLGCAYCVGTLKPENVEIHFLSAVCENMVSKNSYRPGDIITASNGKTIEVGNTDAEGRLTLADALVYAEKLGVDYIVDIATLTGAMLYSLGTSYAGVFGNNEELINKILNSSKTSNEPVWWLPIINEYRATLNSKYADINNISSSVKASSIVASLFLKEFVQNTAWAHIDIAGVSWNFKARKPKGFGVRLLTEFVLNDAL

[14] = enhancers of respiration in Yfh1-depleted yeast, dose response, Friedreich's ataxia, plus single-dose screen (AID 1465); type: functional;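 further: yeast depleted of Yfh1p frataxin homolog grown on glycerol needing respiration; WST-1 tetrazolium dye reduction as measure of cellular dehydrogenase metabolic activity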

Sequence of Lysosomal acid glucosylceramidase (P04062 whole entry): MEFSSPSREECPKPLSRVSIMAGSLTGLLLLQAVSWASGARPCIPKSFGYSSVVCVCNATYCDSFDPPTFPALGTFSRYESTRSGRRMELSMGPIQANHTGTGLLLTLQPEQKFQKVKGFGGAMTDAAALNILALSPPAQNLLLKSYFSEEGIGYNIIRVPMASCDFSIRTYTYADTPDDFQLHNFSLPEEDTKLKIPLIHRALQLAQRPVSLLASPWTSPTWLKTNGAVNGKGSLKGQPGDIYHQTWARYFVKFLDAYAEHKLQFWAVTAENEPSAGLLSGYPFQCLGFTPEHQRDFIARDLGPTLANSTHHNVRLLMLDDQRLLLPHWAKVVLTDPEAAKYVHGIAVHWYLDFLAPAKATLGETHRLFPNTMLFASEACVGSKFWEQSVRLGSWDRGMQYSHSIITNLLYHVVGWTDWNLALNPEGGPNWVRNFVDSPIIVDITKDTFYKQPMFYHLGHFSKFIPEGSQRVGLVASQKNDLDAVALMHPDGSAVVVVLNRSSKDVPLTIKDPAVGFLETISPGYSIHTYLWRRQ

Compound: CC1CCC(C(=O)NC(C(=O)NCCCN2CCOCC2)C(C)C)CC1 (centres undefined)
- EC50 [1]: > 10 µM (not active)

Compound: Cc1ccc(C)c(N2CCN(C(=O)c3ccc4nc(-c5ccco5)c(-c5ccco5)nc4c3)CC2)c1
- IC50 [2]: 14.2 µM (not active)
- AC50 [3]: 15.8 µM (inconclusive)
- AC50 [4]: 20 µM (inconclusive)

Compound: O=C(CSc1nnc(Cc2ccccc2)n1Cc1ccco1)NC1CCCC1
- IC50 [5]: > 43.8 µM (not active)
- IC50 [6]: > 43.8 µM (not active)

Compound: CC(C)[C@@H]1OC(=O)\C=C/C=C\C=C/C=C\C=C/C[C@@H](O)[C@H](C)[C@@H](O)C[C@H](O)C[C@H](O)C[C@H](O)C[C@H](O)C[C@H](O)C[C@H](O)/C=C\[C@@H]1C
- AC50 [7]: 0.316 µM (inconclusive)

Compound: O=C(O)c1cc(-c2ccc(Cl)c(Cl)c2)n(-c2ccc(F)cc2)n1
- IC50 [8]: 8.13 µM (active)
- IC50 [9]: > 67 µM (not active)

Compound: Nc1sc(-c2ccccc2)cc1-c1nnc(S)n1C1CCCCC1
- EC50 [10]: 22.5 µM (not active)
- EC50 [11]: 30.8 µM (not active)
- EC50 [12]: 24.4 µM (not active)

Compound: O=C(O)CN1C(=O)/C(=C\c2cn(CC(=O)N3CCOCC3)c3ccccc23)SC1=S
- IC50 [13]: 13.1 µM (active)
- EC50 [14]: > 100 µM (active)
